For test [1], the target named is T1, ENO1 (Enolase 1, α isoform of enolase) (Homo sapiens, UniProt P06733, K358Q).
T1 construct: recombinant protein expressed in E. coli (printed for the mutants), amine-coupled to CM5 chip
As to the kind of experiment: SPR steady-state affinity (Biacore T200, CM5 chip). Format: binding.

The target in test [2] is T2, ENO1 (Enolase 1, α isoform of enolase) (Homo sapiens, UniProt P06733, K358R).
T2 construct: recombinant protein expressed in E. coli (printed for the mutants), amine-coupled to CM5 chip
As to the kind of experiment: SPR steady-state affinity (Biacore T200, CM5 chip). Format: binding. (In general: SPR reads the build-up and loss of mass on a sensor chip optically.)

The record followed here is article PMC12120773, “SIRT4 Promotes Pancreatic Cancer Stemness by Enhancing Histone Lactylation and Epigenetic Reprogramming Stimulated by Calcium Signaling” (Advanced Science, 2025).

T2 sequence (P06733 2-434 K358R): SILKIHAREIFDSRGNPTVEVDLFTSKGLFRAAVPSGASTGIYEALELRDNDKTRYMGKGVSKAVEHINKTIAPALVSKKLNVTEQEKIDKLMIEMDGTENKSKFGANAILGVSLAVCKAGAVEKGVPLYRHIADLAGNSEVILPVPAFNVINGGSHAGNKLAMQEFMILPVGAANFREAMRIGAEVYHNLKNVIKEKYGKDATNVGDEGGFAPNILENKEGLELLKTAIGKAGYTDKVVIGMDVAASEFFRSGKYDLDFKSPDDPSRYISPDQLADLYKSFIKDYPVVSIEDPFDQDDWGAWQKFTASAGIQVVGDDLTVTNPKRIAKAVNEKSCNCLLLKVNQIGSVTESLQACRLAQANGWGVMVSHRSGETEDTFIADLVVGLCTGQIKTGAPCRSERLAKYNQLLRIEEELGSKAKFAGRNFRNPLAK
T1 sequence (P06733 2-434 K358Q): as the sequence (P06733 2-434 K358R) above, with R357Q counted along it

As to `O=C(O)[C@@H](CO)OP(=O)(O)O` [2‐PG], the Kd in test [1] turned out to be 17.7 µM; in test [2], 2.61 µM.

The Kd is the constant that tells how readily two partners part at equilibrium.
